{"source": "patent US4150120A", "about": "“Ophthalmic” (Takeda Chemical Industries, Ltd., priority 1977, dated 1979)", "key": {"[1]": {"tested_on": "progressive cataract (dogs)", "set-up": "Evaluation: key to the marks not given beside the values", "conditions": "for Relapse: diagnosed after 3 months"}, "cataract (dogs) [2]": {"tested_on": "cataract (dogs)", "type": "in vivo, dog", "experimental": "2, 1977. (Treatment) Starting on Feb. 28, 1977 opthalmic instillations of a 0.01% aqueous solution of free TRH were given 3 times a day. (Treatment) Starting on Aug. […] The right eye was treated simultaneously with the aqueous solution of TRH tartrate alone."}, "cataract (dogs) [3]": {"tested_on": "cataract (dogs)", "type": "in vivo, dog", "remark": "listed apart in the source"}, "[4]": {"tested_on": "acute conjunctivitis (dogs)", "assay": "Treatment of acute conjunctivitis (dogs) by ophthalmic instillation of 0.01% TRH tartrate", "type": "in vivo, dog", "source_text": "The following examples illustrate the treatment of a case of acute catarrhal conjunctivitis and a case of drug-induced acute conjunctivitis, by ophthalmic instillation of TRH alone."}, "[5]": {"conditions": "Case 3, left eye, with dexamethasone and flavine-adenine dinucleotide, August 20"}}, "note": "Structures can show the parent of a compound that is named as a salt. Where two headings read alike, the source gives them in different places.", "data": [{"molecule": "NC(=O)[C@@H]1CCCN1C(=O)[C@H](Cc1cnc[nH]1)NC(=O)[C@@H]1CCC(=O)N1", "note": "[TRH tartrate, L-pyroglutamyl-L-histidyl-L-prolinamide]", "values": [{"measurement": "day on which responses were elicited (generally, seven cases)", "setting": "[1]; 0.01% aqueous solution, 3 instillations a day, eye lids pressed after instillation", "value": "third"}, {"measurement": "result of first course", "setting": "[1]; Case 1, 2 instillations daily for 3 consecutive days, then discontinued", "value": "apparently satisfactory"}, {"measurement": "outcome of the case", "setting": "[1]; Cases 1 and 2, 0.01% solution, 2 instillations daily", "value": "judged to have been cured"}, {"measurement": "Evaluation", "setting": "[1]; case 7, serious total cataract (bilateral), 3 instillations daily for 4 days plus TRH.corson injections on 1st and 3rd days", "value": "++"}, {"measurement": "Relapse", "setting": "[1]; case 7, with adjunct TRH.corson injections", "value": "None"}, {"measurement": "Evaluation", "setting": "[1]; case 9, transient central cataract due to traumatic corneitis (left eye), 2 instillations daily", "value": "+++"}, {"measurement": "Relapse", "setting": "[1]; cases 3-6 and 8", "value": "None"}, {"measurement": "reaction after each instillation (irritation to the conjunctiva)", "setting": "[1]; dog, in vivo", "value": "closed the lids for a while, followed by several blinkings"}, {"measurement": "pannus, left eye", "setting": "cataract (dogs) [2]; Case 3, left eye (immature cortical cataract and corneitis), with 0.02% dexamethasone and 0.05% flavine-adenine dinucleotide, 5 to 6 times daily, August 20", "value": "the pannus had disappeared"}, {"measurement": "ciliary congestion, left eye", "setting": "cataract (dogs) [2]; [5]", "value": "the ciliary congestion persisted"}, {"measurement": "pupillary reflex and dilation, left eye", "setting": "cataract (dogs) [2]; [5]", "value": "satisfactory"}, {"measurement": "lens clarity, right eye", "setting": "cataract (dogs) [2]; Case 3, right eye, TRH tartrate solution alone, 5 to 6 times daily, August 20", "value": "increased clarity in the upper margin of the lens"}, {"measurement": "lens clarity, both eyes", "setting": "cataract (dogs) [2]; Case 3, TRH tartrate solution alone from September 2, September 25", "value": "significantly increased clarity"}, {"measurement": "lens opacity, both eyes", "setting": "cataract (dogs) [2]; Case 3, TRH tartrate solution and dexamethasone solution twice daily, September 2", "value": "only thinned opacities all over the lens"}, {"measurement": "side effect at the times of instillation", "setting": "cataract (dogs) [2]; dog, in vivo", "value": "No side effect was noted"}, {"measurement": "pupillary reflex", "setting": "cataract (dogs) [3]; Case 1, total cataract, 4 to 5 instillations daily from Feb. 2, on February 28", "value": "normal"}, {"measurement": "opacity of pupillary area", "setting": "cataract (dogs) [3]; Case 1, on February 28", "value": "reduced opacity"}, {"measurement": "clarity of the cortex of lens (visual examination)", "setting": "cataract (dogs) [3]; Case 1, on March 10", "value": "improved"}, {"measurement": "outcome of the case", "setting": "[4]; Case 1, acute catarrhal conjunctivitis", "value": "judged to have been cured"}, {"measurement": "findings at examination", "setting": "[4]; Case 1, acute catarrhal conjunctivitis, three instillations given every other day, 7th day after start", "value": "neither a hyperemia nor overflowing tears"}, {"measurement": "findings at examination", "setting": "[4]; Case 2, acute conjunctivitis due to irritation by insecticide, 2 instillations given every other day", "value": "the hyperemia had disappeared and the slightly dilated eye balls had become normal"}, {"measurement": "outcome of the case", "setting": "[4]; Case 2, drug-induced acute conjunctivitis", "value": "cured"}]}, {"molecule": "NC(=O)[C@@H]1CCCN1C(=O)[C@H](Cc1cnc[nH]1)NC(=O)[C@@H]1CCC(=O)N1", "note": "[TRH, L-pyroglutamyl-L-histidyl-L-prolinamide]", "values": [{"measurement": "lens of right eye", "setting": "cataract (dogs) [2]; Case 2, senile cataract, 0.01% aqueous solution of free TRH 3 times a day from Feb. 28, on April 23", "value": "the lens cortex of the right eye was remarkably clear"}, {"measurement": "lens of left eye", "setting": "cataract (dogs) [2]; Case 2, 0.01% free TRH 3 times a day, on April 23", "value": "the circumstances of lens in the left eye could be delineated"}, {"measurement": "side effect during the instillation period", "setting": "cataract (dogs) [2]; dog, in vivo", "value": "No side effect was observed"}]}]}
